In PubChem BioAssay AID248 (DTP/NCI, 2004):
Several values for one entry are separate records, joined by “and”; a condition that tells them apart may be missing. Equal values may be shown once. Toxic doses and inconclusive results are not listed. No stated cut-off is given here; in the data, active means T/C of 150% or more; inactive means T/C below 125%.

Test system: L1210 leukemia ip in BDF1 mice, survival T/C
Experiment: NCI In Vivo Anticancer Drug Screen. Data for tumor model L1210 Leukemia (intraperitoneal) in B6D2F1 (BDF1) mice
Settings: endpoint: mean survival time, higher = longer survival
Procedure, shortened: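 Each compound was tested against a transplantable tumor grown in mice. The endpoint was survival, with treated animals benchmarked against vehicle controls as a simple ratio.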

[1] = dose: 100.0 mg/kg/injection, schedule: Q01DX001 (ip), vehicle: saline
[2] = dose: 200.0 mg/kg/injection, schedule: Q01DX001 (ip), vehicle: saline
[3] = dose: 400.0 mg/kg/injection, schedule: Q01DX001 (ip), vehicle: saline
[4] = dose: 50.0 mg/kg/injection, schedule: Q01DX001 (ip), vehicle: saline
[5] = dose: 100.0 mg/kg/injection, schedule: Q04DX003 (ip), vehicle: saline with Tween-80
[6] = dose: 200.0 mg/kg/injection, schedule: Q04DX003 (ip), vehicle: saline with Tween-80
[7] = dose: 400.0 mg/kg/injection, schedule: Q04DX003 (ip), vehicle: saline with Tween-80

Measured: T/C

O=C(OC/C=C/CC(Cl)(Cl)Cl)C(Cl)(Cl)Cl
inactive: [1] 104 % of control | dose: 100.0 mg/kg/injection, schedule: Q01DX009 (ip), vehicle: acetone 93 % of control | dose: 100.0 mg/kg/injection, schedule: Q04DX003 (ip), vehicle: acetone 109 % of control | [2] 112 % of control | dose: 200.0 mg/kg/injection, schedule: Q01DX009 (ip), vehicle: acetone 90 % of control | dose: 200.0 mg/kg/injection, schedule: Q04DX003 (ip), vehicle: acetone 103 % of control | [3] 102 % of control | dose: 400.0 mg/kg/injection, schedule: Q04DX003 (ip), vehicle: acetone 93 % of control

Cn1c(C2=CC(=O)c3ccccc3C2=O)c(C2=CC(=O)c3ccccc3C2=O)c2ccccc21
inactive: [4] 102 % of control | [1] 98 % of control | [2] 104 % of control | [3] 102 % of control

C=CCc1ccc(OCC(N)=O)c(OC)c1
inactive: [5] 107 % of control | [6] 107 % of control | [7] 109 % of control

NNc1ccc(-c2ccccc2)cc1
inactive: dose: 75.0 mg/kg/injection, schedule: Q01DX001 (ip), vehicle: carboxymethylcellulose (CMC) 95 % of control | dose: 150.0 mg/kg/injection, schedule: Q01DX001 (ip), vehicle: carboxymethylcellulose (CMC) 92 % of control | dose: 300.0 mg/kg/injection, schedule: Q01DX001 (ip), vehicle: carboxymethylcellulose (CMC) 97 % of control

N#CC1(c2ccccc2)OC1(c1ccccc1)c1ccccc1 (stereo unspecified)
inactive: dose: 100.0 mg/kg/injection, schedule: Q01DX009 (ip), vehicle: Klucel (hydroxypropylcellulose) (HPC) 89 % of control | dose: 100.0 mg/kg/injection, schedule: Q04DX002 (ip), vehicle: Klucel (hydroxypropylcellulose) (HPC) 88 % of control | dose: 200.0 mg/kg/injection, schedule: Q01DX009 (ip), vehicle: Klucel (hydroxypropylcellulose) (HPC) 91 % of control | dose: 200.0 mg/kg/injection, schedule: Q04DX002 (ip), vehicle: Klucel (hydroxypropylcellulose) (HPC) 92 % of control | dose: 400.0 mg/kg/injection, schedule: Q01DX009 (ip), vehicle: Klucel (hydroxypropylcellulose) (HPC) 88 % of control

Cc1ccn(-c2cc(NS(=O)(=O)c3ccccc3)c3ccccc3c2NS(=O)(=O)c2ccccc2)c(=O)c1
inactive: dose: 50.0 mg/kg/injection, schedule: Q01DX001 (ip), vehicle: Klucel (hydroxypropylcellulose) (HPC) 107 % of control | dose: 100.0 mg/kg/injection, schedule: Q01DX001 (ip), vehicle: Klucel (hydroxypropylcellulose) (HPC) 94 % of control | dose: 200.0 mg/kg/injection, schedule: Q01DX001 (ip), vehicle: Klucel (hydroxypropylcellulose) (HPC) 97 % of control

CN=Cc1ccc([N+](=O)[O-])cc1
inactive: dose: 75.0 mg/kg/injection, schedule: Q01DX001 (ip), vehicle: Klucel (hydroxypropylcellulose) (HPC) 91 % of control | dose: 75.0 mg/kg/injection, schedule: Q01DX009 (ip), vehicle: Klucel (hydroxypropylcellulose) (HPC) 96 % of control | dose: 150.0 mg/kg/injection, schedule: Q01DX001 (ip), vehicle: Klucel (hydroxypropylcellulose) (HPC) 91 % of control | dose: 150.0 mg/kg/injection, schedule: Q01DX009 (ip), vehicle: Klucel (hydroxypropylcellulose) (HPC) 105 % of control | dose: 300.0 mg/kg/injection, schedule: Q01DX001 (ip), vehicle: Klucel (hydroxypropylcellulose) (HPC) 96 % of control | dose: 300.0 mg/kg/injection, schedule: Q01DX009 (ip), vehicle: Klucel (hydroxypropylcellulose) (HPC) 95 % of control

Cc1sc(Cc2ccccc2)nc1-c1ccc(N=Cc2ccc(N(CCOS(C)(=O)=O)CCOS(C)(=O)=O)cc2)cc1
inactive: dose: 25.0 mg/kg/injection, schedule: Q04DX003 (ip), vehicle: saline with Tween-80 113 % of control | dose: 50.0 mg/kg/injection, schedule: Q04DX003 (ip), vehicle: saline with Tween-80 123 % of control | [5] 107 % of control and 114 % of control

O=C(CCl)Nc1cc(Cl)c(Cl)cc1Cl
inactive: [5] 97 % of control | [6] 97 % of control | [7] 106 % of control

COc1ccc(CC(=O)NC(N)=O)cc1
inactive: [5] 101 % of control | [6] 97 % of control | [7] 90 % of control

OCC1(CO)COC2(CCCC2)N1
inactive: [4] 101 % of control | [1] 97 % of control | [2] 95 % of control | [3] 103 % of control

CC(=O)CC(=O)N(N=O)c1ccccc1C
inactive: [1] 104 % of control | [2] 95 % of control

CC(=O)Nc1ccc2scnc2c1
inactive: [5] 112 % of control | [6] 112 % of control | [7] 105 % of control

CCCCC(CCN(C)C)(CNC(=O)CN(CC)CC)c1cccc2ccccc12 (stereo unspecified)
inactive: dose: 25.0 mg/kg/injection, schedule: Q01DX009 (ip), vehicle: saline 91 % of control | dose: 50.0 mg/kg/injection, schedule: Q01DX009 (ip), vehicle: saline 91 % of control | dose: 100.0 mg/kg/injection, schedule: Q01DX009 (ip), vehicle: saline 90 % of control | dose: 100.0 mg/kg/injection, schedule: Q04DX003 (ip), vehicle: saline 100 % of control

CC(C)(C)C1CCC([N+](=O)[O-])CC1 (stereo unspecified)
inactive: dose: 19.0 mg/kg/injection, schedule: Q01DX001 (ip), vehicle: other 103 % of control | dose: 19.0 mg/kg/injection, schedule: Q01DX009 (ip), vehicle: other 102 % of control | dose: 38.0 mg/kg/injection, schedule: Q01DX001 (ip), vehicle: other 97 % of control | dose: 38.0 mg/kg/injection, schedule: Q01DX009 (ip), vehicle: other 98 % of control | dose: 75.0 mg/kg/injection, schedule: Q01DX001 (ip), vehicle: other 95 % of control and 97 % of control

COc1cc2c(c(OC)c1OC)-c1cc3c(cc1[C@@H](OC(C)=O)[C@@H]1COC(=O)[C@H]1C2)OCO3
inactive: dose: 6.22 mg/kg/injection, schedule: Q01DX009 (ip), vehicle: saline + alcohol 89 % of control | dose: 9.33 mg/kg/injection, schedule: Q01DX009 (ip), vehicle: saline + alcohol 94 % of control | dose: 14.0 mg/kg/injection, schedule: Q01DX009 (ip), vehicle: saline + alcohol 107 % of control | dose: 21.0 mg/kg/injection, schedule: Q01DX009 (ip), vehicle: saline + alcohol 105 % of control

CN(C)N=Nc1cn(C)c(=O)n(C)c1=O
inactive: dose: 150.0 mg/kg/injection, schedule: Q04DX003 (ip), vehicle: water 106 % of control

O=C(OC(C(=O)O)C(OC(=O)c1ccccc1)C(=O)O)c1ccccc1 (stereo unspecified) (tested in a mixture with another compound)
inactive: dose: 15.0 mg/kg/injection, schedule: Q01DX001 (ip), vehicle: carboxymethylcellulose (CMC) 102 % of control | dose: 100.0 mg/kg/injection, schedule: Q01DX001 (ip), vehicle: other 109 % of control | dose: 200.0 mg/kg/injection, schedule: Q01DX001 (ip), vehicle: other 102 % of control | dose: 400.0 mg/kg/injection, schedule: Q01DX001 (ip), vehicle: other 109 % of control

CN1C(=O)C(c2ccccc2)(c2ccccc2)C(Br)=C1c1ccccc1
inactive: [4] 107 % of control | [1] 91 % of control | [2] 96 % of control | [3] 102 % of control

CC(C)C(CN)(CCN(C)C)c1cccc2ccccc12 (stereo unspecified)
inactive: [5] 88 % of control

CCOC(=O)c1ccc2c(ccc[n+]2C)c1
inactive: dose: 75.0 mg/kg/injection, schedule: Q01DX001 (ip), vehicle: saline 97 % of control | dose: 75.0 mg/kg/injection, schedule: Q04DX003 (ip), vehicle: saline 107 % of control | dose: 150.0 mg/kg/injection, schedule: Q01DX001 (ip), vehicle: saline 97 % of control | dose: 150.0 mg/kg/injection, schedule: Q04DX003 (ip), vehicle: saline 105 % of control | dose: 300.0 mg/kg/injection, schedule: Q01DX001 (ip), vehicle: saline 95 % of control

COc1ccc(C(=O)c2ccc3ccccc3c2)cc1
inactive: dose: 100.0 mg/kg/injection, schedule: Q01DX001 (ip), vehicle: carboxymethylcellulose (CMC) 92 % of control | dose: 200.0 mg/kg/injection, schedule: Q01DX001 (ip), vehicle: carboxymethylcellulose (CMC) 92 % of control | dose: 400.0 mg/kg/injection, schedule: Q01DX001 (ip), vehicle: carboxymethylcellulose (CMC) 94 % of control
